According to ChEMBL document CHEMBL1133741, “New anilinophthalazines as potent and orally well absorbed inhibitors of the VEGF receptor tyrosine kinases useful as antagonists of tumor-driven angiogenesis” (J Med Chem, 2000):
pIC50: −log10 of the molar value.

How the values were obtained:
[1] = molecular target: Vascular endothelial growth factor receptor 1 (Homo sapiens, UniProt P17948); assay: Inhibitory activity against Flt-kinase
[2] = molecular target: T1, Vascular endothelial growth factor receptor 2 (Homo sapiens, UniProt P35968); assay: Inhibitory activity against kinase domain containing receptor (KDR/VEGFR2)
T1 sequence (P35968 whole entry, the tested form may be a part): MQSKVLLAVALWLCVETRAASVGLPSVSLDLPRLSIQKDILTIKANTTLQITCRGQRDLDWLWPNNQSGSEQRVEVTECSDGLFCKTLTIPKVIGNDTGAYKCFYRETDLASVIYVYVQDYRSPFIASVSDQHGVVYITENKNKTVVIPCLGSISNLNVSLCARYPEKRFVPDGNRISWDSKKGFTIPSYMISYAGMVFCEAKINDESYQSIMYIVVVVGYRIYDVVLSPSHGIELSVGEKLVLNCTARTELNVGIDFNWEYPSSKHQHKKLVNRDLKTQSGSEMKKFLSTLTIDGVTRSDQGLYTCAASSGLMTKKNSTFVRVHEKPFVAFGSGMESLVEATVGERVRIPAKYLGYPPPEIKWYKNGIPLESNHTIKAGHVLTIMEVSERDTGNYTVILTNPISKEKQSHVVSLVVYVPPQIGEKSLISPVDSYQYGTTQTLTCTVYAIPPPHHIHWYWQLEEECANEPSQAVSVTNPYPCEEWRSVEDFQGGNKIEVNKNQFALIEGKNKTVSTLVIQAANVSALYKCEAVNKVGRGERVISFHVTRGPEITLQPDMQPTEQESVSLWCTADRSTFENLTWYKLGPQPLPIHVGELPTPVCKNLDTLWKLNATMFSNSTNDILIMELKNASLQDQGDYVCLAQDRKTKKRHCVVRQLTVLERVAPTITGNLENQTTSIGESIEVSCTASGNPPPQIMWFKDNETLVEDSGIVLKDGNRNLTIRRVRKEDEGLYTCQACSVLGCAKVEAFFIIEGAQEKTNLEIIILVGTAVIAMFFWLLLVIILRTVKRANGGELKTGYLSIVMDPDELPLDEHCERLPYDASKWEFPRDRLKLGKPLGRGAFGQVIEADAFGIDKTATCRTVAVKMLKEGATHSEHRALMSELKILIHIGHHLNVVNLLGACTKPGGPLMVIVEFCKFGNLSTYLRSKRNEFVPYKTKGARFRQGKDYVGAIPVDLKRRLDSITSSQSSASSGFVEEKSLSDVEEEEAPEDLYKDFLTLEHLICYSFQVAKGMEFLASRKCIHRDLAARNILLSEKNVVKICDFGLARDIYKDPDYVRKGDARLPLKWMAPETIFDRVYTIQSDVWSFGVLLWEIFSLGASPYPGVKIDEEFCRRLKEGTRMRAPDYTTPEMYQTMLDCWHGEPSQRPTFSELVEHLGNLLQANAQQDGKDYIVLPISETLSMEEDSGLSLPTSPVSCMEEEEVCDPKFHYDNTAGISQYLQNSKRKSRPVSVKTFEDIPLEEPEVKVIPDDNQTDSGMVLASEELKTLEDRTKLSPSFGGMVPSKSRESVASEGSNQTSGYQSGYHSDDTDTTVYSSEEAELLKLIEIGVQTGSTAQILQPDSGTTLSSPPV

[3] = molecular target: T1, Vascular endothelial growth factor receptor 2; conditions: CHO
[4] = The maximum time reported (tmax) at an oral dose of 50 mg/Kg in mice; assay type: ADME, organism-based; conditions: mouse, in vivo
Mus musculus = assay: (§1) The maximum concentration observed (Cmax) in the blood sample at indicated time point (tmax) at a dose 50 mg/Kg administered orally in mice.; assay type: ADME, organism-based; design: dose 50 mg/Kg, route oral; conditions: in vivo, po
[5] = molecular target: Platelet-derived growth factor receptor beta (Homo sapiens, UniProt P09619); assay: Inhibition of PDGF- beta receptor kinase
Platelet-derived growth factor receptor beta, sequence (P09619 whole entry): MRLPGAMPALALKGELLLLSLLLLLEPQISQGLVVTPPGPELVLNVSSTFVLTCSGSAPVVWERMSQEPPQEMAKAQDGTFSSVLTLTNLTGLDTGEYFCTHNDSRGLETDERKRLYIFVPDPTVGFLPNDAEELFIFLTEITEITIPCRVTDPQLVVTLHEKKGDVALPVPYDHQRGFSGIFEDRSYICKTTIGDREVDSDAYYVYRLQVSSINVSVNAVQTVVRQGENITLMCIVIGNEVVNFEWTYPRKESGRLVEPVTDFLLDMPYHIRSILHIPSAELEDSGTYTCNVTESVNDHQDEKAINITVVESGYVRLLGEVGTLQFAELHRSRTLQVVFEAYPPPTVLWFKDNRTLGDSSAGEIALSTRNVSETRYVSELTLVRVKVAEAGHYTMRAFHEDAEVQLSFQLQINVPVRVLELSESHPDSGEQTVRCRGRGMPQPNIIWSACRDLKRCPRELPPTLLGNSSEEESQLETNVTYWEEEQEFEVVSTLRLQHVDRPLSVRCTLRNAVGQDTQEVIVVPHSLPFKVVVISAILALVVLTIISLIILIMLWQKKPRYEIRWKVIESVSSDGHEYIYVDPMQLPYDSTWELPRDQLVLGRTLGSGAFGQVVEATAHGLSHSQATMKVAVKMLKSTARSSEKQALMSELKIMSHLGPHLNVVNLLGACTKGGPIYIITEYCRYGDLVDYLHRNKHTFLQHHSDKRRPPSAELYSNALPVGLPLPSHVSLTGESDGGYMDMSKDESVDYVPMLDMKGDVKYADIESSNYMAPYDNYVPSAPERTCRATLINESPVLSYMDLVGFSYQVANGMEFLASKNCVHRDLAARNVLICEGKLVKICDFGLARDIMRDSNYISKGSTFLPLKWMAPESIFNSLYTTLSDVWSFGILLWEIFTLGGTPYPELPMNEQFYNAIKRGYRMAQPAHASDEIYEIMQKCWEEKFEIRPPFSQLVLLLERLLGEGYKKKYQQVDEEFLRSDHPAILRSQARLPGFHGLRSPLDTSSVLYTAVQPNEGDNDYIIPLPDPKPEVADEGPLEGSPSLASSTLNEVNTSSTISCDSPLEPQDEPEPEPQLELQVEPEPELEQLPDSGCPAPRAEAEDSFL

[6] = as §1; assay type: ADME, organism-based; design: dose 50 mg/Kg, route oral; conditions: mouse, in vivo, po
[7] = molecular target: Mast/stem cell growth factor receptor Kit (Homo sapiens, UniProt P10721); assay: Inhibition of Proto-oncogene tyrosine-kinase c-Kit
Mast/stem cell growth factor receptor Kit, sequence (P10721 whole entry): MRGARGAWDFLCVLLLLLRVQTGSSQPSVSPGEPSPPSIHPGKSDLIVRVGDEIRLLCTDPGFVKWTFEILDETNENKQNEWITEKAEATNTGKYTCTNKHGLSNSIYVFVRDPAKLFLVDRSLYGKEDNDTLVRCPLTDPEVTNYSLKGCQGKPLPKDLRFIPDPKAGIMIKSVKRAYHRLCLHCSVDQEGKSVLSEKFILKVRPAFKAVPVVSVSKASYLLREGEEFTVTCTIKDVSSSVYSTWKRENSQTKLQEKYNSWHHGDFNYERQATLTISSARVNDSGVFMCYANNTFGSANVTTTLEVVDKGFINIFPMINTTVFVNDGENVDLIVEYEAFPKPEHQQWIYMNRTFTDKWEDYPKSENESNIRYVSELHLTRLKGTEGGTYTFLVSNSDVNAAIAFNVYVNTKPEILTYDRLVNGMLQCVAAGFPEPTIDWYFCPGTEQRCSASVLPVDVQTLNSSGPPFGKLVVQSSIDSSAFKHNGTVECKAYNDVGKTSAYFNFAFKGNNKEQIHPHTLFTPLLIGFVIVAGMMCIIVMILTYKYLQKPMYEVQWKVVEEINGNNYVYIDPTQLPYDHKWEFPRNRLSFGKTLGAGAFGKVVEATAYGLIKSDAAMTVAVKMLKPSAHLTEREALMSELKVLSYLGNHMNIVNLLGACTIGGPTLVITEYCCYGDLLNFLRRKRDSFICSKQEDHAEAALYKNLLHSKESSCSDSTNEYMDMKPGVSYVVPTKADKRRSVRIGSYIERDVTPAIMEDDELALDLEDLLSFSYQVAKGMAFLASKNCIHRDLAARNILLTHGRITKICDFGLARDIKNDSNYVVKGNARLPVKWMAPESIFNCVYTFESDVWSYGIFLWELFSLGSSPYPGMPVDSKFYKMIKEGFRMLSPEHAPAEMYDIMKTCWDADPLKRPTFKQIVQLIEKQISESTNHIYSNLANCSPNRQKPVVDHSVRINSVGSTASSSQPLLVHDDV

Vascular endothelial growth factor receptor 1, sequence (P17948 whole entry, the tested form may be a part): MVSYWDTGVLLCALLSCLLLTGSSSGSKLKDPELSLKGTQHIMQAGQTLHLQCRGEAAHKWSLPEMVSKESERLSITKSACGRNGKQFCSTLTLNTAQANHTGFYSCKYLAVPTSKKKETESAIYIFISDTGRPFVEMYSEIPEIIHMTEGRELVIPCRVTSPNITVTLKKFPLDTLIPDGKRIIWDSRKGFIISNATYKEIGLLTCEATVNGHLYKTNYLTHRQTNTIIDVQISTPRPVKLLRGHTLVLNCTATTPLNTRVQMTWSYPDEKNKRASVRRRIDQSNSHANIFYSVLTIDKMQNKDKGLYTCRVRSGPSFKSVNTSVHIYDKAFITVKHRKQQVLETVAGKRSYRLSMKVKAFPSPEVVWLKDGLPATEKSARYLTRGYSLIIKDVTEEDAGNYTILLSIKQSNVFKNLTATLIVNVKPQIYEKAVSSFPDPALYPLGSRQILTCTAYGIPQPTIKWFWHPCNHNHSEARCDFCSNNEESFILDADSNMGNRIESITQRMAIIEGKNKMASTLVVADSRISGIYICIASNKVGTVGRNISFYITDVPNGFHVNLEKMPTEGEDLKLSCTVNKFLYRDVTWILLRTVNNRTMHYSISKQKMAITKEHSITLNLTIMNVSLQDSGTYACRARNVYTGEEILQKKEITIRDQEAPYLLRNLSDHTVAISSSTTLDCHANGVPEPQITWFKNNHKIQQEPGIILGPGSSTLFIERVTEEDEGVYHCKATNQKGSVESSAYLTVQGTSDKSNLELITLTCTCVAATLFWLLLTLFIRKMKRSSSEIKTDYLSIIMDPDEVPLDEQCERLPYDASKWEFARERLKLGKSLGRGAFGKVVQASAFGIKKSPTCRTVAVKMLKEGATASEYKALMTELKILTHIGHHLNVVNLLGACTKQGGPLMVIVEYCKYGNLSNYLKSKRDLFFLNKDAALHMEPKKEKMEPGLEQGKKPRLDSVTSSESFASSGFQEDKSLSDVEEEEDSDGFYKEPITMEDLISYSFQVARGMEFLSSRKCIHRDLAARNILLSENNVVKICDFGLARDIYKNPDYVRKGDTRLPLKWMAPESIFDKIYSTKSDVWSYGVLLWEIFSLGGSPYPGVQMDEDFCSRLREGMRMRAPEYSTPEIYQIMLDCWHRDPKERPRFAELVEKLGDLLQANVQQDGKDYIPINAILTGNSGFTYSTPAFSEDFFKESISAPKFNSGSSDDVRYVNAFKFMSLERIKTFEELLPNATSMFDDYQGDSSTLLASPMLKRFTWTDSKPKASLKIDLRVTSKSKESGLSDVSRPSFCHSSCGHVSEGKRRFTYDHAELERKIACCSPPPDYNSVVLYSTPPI

pIC50 [1]	pIC50 [2]	ED50 [3] [nM]	Tmax [4] [min]	Cmax (Mus musculus) [µM]	pIC50 [5]	Cmax [6] [µM]	pIC50 [7]	Compound
5.52	5.33	–	–	–	–	–	–	Cc1ccc2c(Cc3ccncc3)nnc(Nc3ccc(Cl)cc3)c2c1
–	–	930	30	0.3	–	–	–	Cc1cc(C)c(/C=C2\C(=O)Nc3ccccc32)[nH]1 [SEMAXANIB]
7.15	7.52	27	30	–	6.22	9.8	6.15	Clc1ccc(Nc2nnc(Cc3ccncc3)c3ccccc23)cc1Cl
–	–	–	30	–	5.40	0.5	5.10	Oc1cccc(Nc2nnc(Cc3ccncc3)c3ccccc23)c1
6.64	6.21	–	–	–	–	–	–	Clc1ccc(Nc2nnc(Cc3ccncc3)c3cnccc23)cc1
6.22	6.42	39	120	–	< 5.00	6	< 5.00	FC(F)(F)c1cc(Br)cc(Nc2nnc(Cc3ccncc3)c3ccccc23)c1
–	–	–	15	–	–	32	–	Clc1ccc(Nc2nnc(Cc3ccncc3)c3ccccc23)cc1.O=C(O)CCC(=O)O
6.59	–	–	–	–	–	–	–	Cc1c(Cc2ccncc2)nnc(Nc2ccc(Cl)cc2)c1C
5.44	< 5.00	–	–	–	–	–	–	Clc1ccc(Nc2nnc(Cc3ccncc3)c3c2CCCC3)cc1
–	–	–	–	–	5.85	–	5.85	c1ccc(-c2ccc(Nc3nnc(Cc4ccncc4)c4ccccc34)cc2)cc1
6.33	–	–	–	–	–	–	–	Clc1ccc(Nc2nnc(Cc3ccncc3)c3ccncc23)cc1
7.22	5.80	–	–	–	–	–	–	Clc1ccc(Oc2nnc(Cc3ccncc3)c3ccccc23)cc1
6.82	7.40	10	30	–	6.10	10	5.70	Cc1cc(C)cc(Nc2nnc(Cc3ccncc3)c3ccccc23)c1
6.46	6.70	40	–	–	< 5.00	–	< 5.00	Fc1cc(Nc2nnc(Cc3ccncc3)c3ccccc23)cc(C(F)(F)F)c1
6.12	6.39	–	–	–	–	–	–	Clc1ccc(Nc2nnc(Cc3ccncn3)c3ccccc23)cc1
–	–	–	30	–	5.70	25.6	6.00	CC(C)(C)c1ccc(Nc2nnc(Cc3ccncc3)c3ccccc23)cc1

pIC50 [1]	pIC50 [2]	ED50 [3] [nM]	Tmax [4] [min]	Cmax (Mus musculus) [µM]	pIC50 [5]	Cmax [6] [µM]	pIC50 [7]	Compound
–	–	–	–	–	5.55	–	< 5.00	c1ccc(Nc2nnc(Cc3ccncc3)c3ccccc23)cc1
6.22	–	–	120	–	5.40	7.6	5.57	FC(F)(F)c1cc(Nc2nnc(Cc3ccncc3)c3ccccc23)ccc1Cl
6.38	6.68	–	–	–	–	–	–	CC(c1ccncc1)c1nnc(Nc2ccc(Cl)cc2)c2ccccc12 (centres undefined)
5.01	< 5.00	–	–	–	–	–	–	Clc1ccc(Nc2nnc(Cc3cccnc3)c3ccccc23)cc1
6.19	–	–	–	–	–	–	–	Nc1ccc2c(Cc3ccncc3)nnc(Nc3ccc(Cl)cc3)c2c1
7.40	7.10	8	30	–	6.00	13	5.60	Cc1cccc(Nc2nnc(Cc3ccncc3)c3ccccc23)c1
7.15	5.89	–	–	–	–	–	–	Clc1ccc(Sc2nnc(Cc3ccncc3)c3ccccc23)cc1
5.77	–	–	–	–	–	–	–	Clc1ccc(Nc2nnc(Cc3ccncc3)c3cccnc23)cc1
6.62	–	–	–	–	–	–	–	Clc1ccc(Nc2nnc(Cc3ccncc3)c3ncccc23)cc1
< 5.00	< 5.00	–	–	–	–	–	–	Clc1ccc(Nc2nnc(Cc3ccccn3)c3ccccc23)cc1
5.59	5.33	–	–	–	–	–	–	Clc1ccc(Nc2nnc(NCc3ccncc3)c3ccccc23)cc1
< 5.00	< 5.00	–	–	–	–	–	–	Cc1cc(Cc2nnc(Nc3ccc(Cl)cc3)c3ccccc23)cc(C)n1
–	–	–	30	–	6.10	21	5.52	COc1cccc(Nc2nnc(Cc3ccncc3)c3ccccc23)c1
–	6.62	–	–	–	–	–	–	Cc1cc(Cc2nnc(Nc3ccc(Cl)cc3)c3ccccc23)ccn1
6.59	–	–	30	–	5.70	8	5.46	COc1cc(Nc2nnc(Cc3ccncc3)c3ccccc23)ccc1Cl
5.64	5.46	–	–	–	–	–	–	CN(c1ccc(Cl)cc1)c1nnc(Cc2ccncc2)c2ccccc12
